In patent publication US9173391B2, “Crystalline complexes of 4-hydroxy benzoic acid and selected pesticides” (BASF SE, priority 2009, dated 2015):
In brackets after ≈: the same amount, converted by molar mass.

Test: physchem
Settings: water, thermodynamic from solid

In the case of C/C(=N\C#N)N(C)Cc1ccc(Cl)nc1 [crystalline acetamiprid, acetamiprid], the solubility at 24 h is reported as 2750 µg/mL (≈ 12.3 mM).
